Several values for one entry are separate records, joined by “and”; a condition that tells them apart may be missing. Identical values can stand only once.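 Exposure lasted 48 hours, with cells grown in 96-well plates and compounds tested at five concentrations. GI50 is the concentration that inhibits growth by half. The concentration for full growth arrest is given as TGI.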
Columns and labels:
Assay in all cases: NCI-60 cell line screen, 48 h
RXF 393 renal = test system: RXF 393 renal
HCT-116 colon = test system: HCT-116 colon
UO-31 renal = test system: UO-31 renal
M14 melanoma = test system: M14 melanoma
HT29 colon = test system: HT29 colon
SNB-19 CNS = test system: SNB-19 CNS
IGROV1 ovarian = test system: IGROV1 ovarian
T-47D breast = test system: T-47D breast
DU-145 prostate = test system: DU-145 prostate
MCF7 breast = test system: MCF7 breast

Compound | GI50 (RXF 393 renal) | TGI (RXF 393 renal) | GI50 (HCT-116 colon) | TGI (HCT-116 colon) | GI50 (UO-31 renal) [µM] | TGI (UO-31 renal) | GI50 (M14 melanoma) | TGI (M14 melanoma) | GI50 (HT29 colon) | TGI (HT29 colon) | GI50 (SNB-19 CNS) | TGI (SNB-19 CNS) | GI50 (IGROV1 ovarian) | TGI (IGROV1 ovarian) | GI50 (T-47D breast) [µM] | TGI (T-47D breast) | GI50 (DU-145 prostate) | TGI (DU-145 prostate) | GI50 (MCF7 breast) | TGI (MCF7 breast)
CN(C)Cc1ccc(NC(=O)c2cncc(C#Cc3cnc(N)c4ncccc34)c2)cc1C(F)(F)F | 1.31 µM | 2.88 µM | 1.08 µM | 2.33 µM | 1.43 | 2.8 µM | 0.0802 µM | 1.33 µM | 0.133 µM | 1.86 µM | 1.89 µM | 3.5 µM | 1.47 µM | 2.97 µM | 15.8 | 65.3 µM | 1.73 µM | 3.16 µM | 1.63 µM | 3.33 µM
O=C(O)/C=C/c1c2ccc(=O)c(O)c-2oc2c(O)c(O)ccc12 | – | > 100 µM | – | 40 µM | – | > 100 µM | – | > 100 µM | – | > 100 µM | – | > 100 µM | – | > 100 µM | – | > 100 µM | – | > 100 µM | – | 34.8 µM
Nc1c(C(=O)c2cccc(-c3cccnc3)c2)cnn1-c1ccc(F)cc1 | > 18.3 µM | > 25 µM | > 25 µM | > 25 µM | > 25 | > 25 µM | > 25 µM | > 25 µM | > 25 µM | > 25 µM | > 25 µM | > 25 µM | > 25 µM | > 25 µM | > 25 | > 25 µM | > 25 µM | > 25 µM | > 25 µM | > 25 µM
Cc1cc(NC(=O)NCCOc2ccc(N3C(N)=NC(N)=NC3(C)C)cc2Cl)ccc1S(=O)(=O)F | 2.05 µM | > 100 µM | 0.545 µM | > 100 µM | > 100 | > 100 µM | 4.1 µM | > 100 µM | 0.484 µM | 13.8 µM | 4.31 µM | > 100 µM | 0.545 µM | > 100 µM | 5.13 | 74.9 µM | 2.53 µM | > 100 µM | 1.7 µM | 50.3 µM
COc1ccc(-n2nc(C)c3c(Nc4ccc(NC(=O)Nc5cccc(C(F)(F)F)c5)cc4)ncnc32)cc1 | 0.846 µM | 2.34 µM | 1.62 µM | 3.46 µM | 1.51 | 2.86 µM | 1.54 µM | 3.36 µM | 1.77 µM | 3.96 µM | 1.95 µM | 4.65 µM | 2 µM | 4.18 µM | 1.64 | 4.84 µM | 1.97 µM | 4.54 µM | 2.05 µM | 5.57 µM
COc1ccc2[nH]c3c(C)c4c(c(C)c3c2c1)CN(C)C=C4 | – | 30.4 µM | – | 22.1 µM | – | 81.1 µM | – | 22.7 µM | – | 22.3 µM | – | 3.66 µM | – | 39.8 µM | – | 14.9 µM | – | 33.8 µM | – | > 100 µM
NC(CSC(c1ccccc1)(c1ccccc1)c1ccccc1)C(=O)O (stereo not given) | 0.708 µM and 0.454 µM | 22.8 µM and > 100 µM | 0.512 µM and 0.425 µM | 55.3 µM and 64.2 µM and > 100 µM | 9.89 | 107 µM and > 100 µM | 0.426 µM and 0.389 µM | 6.01 µM and 16.2 µM and 27.5 µM | 3.71 µM and 3.28 µM | 27.3 µM and 14.6 µM | 2.26 µM and 5.8 µM | 63.9 µM and > 100 µM | 3.98 µM and 4.69 µM | 84.8 µM and > 100 µM | 3.46 | 54.9 µM and 53.4 µM | 6.02 µM and 4.1 µM | 85.5 µM and > 100 µM | 0.665 µM and 0.416 µM | 67.8 µM and > 100 µM
CCN1C(=O)N(CC)C2C1NN=c1s/c(=C3\C(=O)Nc4ccccc43)c(=O)n12 (stereo not given) | 0.279 µM | 1.05 µM | 0.485 µM | > 61.6 µM | 1.09 | > 100 µM | 0.33 µM | 3.36 µM | 0.374 µM | > 100 µM | 0.633 µM | 32.3 µM | 0.616 µM | 24.6 µM | 0.42 | > 100 µM | 0.492 µM | 33.6 µM | 0.354 µM | > 89.7 µM

— PubChem BioAssay (NCI)
